Experimental data from patent US8710179B2, “Compositions and methods for concentrating and depleting microorganisms” (priority 2006, dated 2014).
In brackets after ≈: the same amount, converted by molar mass. Where two headings read alike, the source gives them in different places.

Columns and labels:
[1] = Regeneration and stability of polymer-loaded beads (HPLC and MS after cleavage); type: physicochemical
Excerpt: To verify their stability and the regeneration thereof, polymer-loaded resin beads were submitted to multiple cycles of bacterial binding followed by their release with 70% ethanol. To assess the potential polymer degradation, the polymer was cleaved from the resin, analyzed by HPLC and identified by mass spectrometry.
Polymer-loaded beads were exposed to 10 consecutive cycles of bacterial binding and release with 70% ethanol, and were submitted to a cleavage reaction. The cleaved polymers were analyzed by HPLC and mass spectrometry before and after the repetitive cycles. The HPLC chromatograms were obtained over […] elution using a 1% gradient of acetonitrile in water (30% to 60%), and the fraction containing the polymer was subjected to mass spectrometry analysis.

bacteria = experiment: Antibacterial activity (MIC) of the resin-free polymer, strain not given; type: cell-based
Excerpt: (§1) “MIC (μM)” represents the minimal inhibitory concentration of each tested polymer in μM for each bacterial strain, measured as described previously (columns 5-8 in Table 3); For bacterial strains, “Ec” represents E. coli; “Pa” represents P. aeruginosa; “Sa” represents S. aureus; and “Bc” represents B. cereus; and […]

S. aureus = type: cell-based
Excerpt: as §1

P. aeruginosa = type: cell-based
Excerpt: as §1

B. cereus = type: cell-based
Excerpt: as §1

E. coli [2] = type: cell-based
Excerpt: as §1

E. coli [3] = type: cell-based; remark: listed apart in the source
Protocol: (§2) To assess bacterial binding to the beads, filtrates were subjected to serial 10 fold dilutions and plated on LB agar plates. Cell counts were determined using the drop plate method (three 20 μl drops onto LB agar plates) after overnight incubation at 37° C. For the viability study, resins were spread directly on LB agar plates and incubated similarly. For kinetic studies, resins were incubated with 1×10^6 CFU/ml E. coli in LB for up to 15 minutes and filtered after the indicated time periods then plated for CFU count.
The non-cytotoxicity of the beads-bound polymers was assessed by the viability of the polymer-captured bacteria. E. coli was incubated with beads-bound polymers (10^6 CFU/ml/mg resin), and after filtration, samples of the resins and the filtrates were plated on LB-agar individually.
FIG. 6 presents a series of images of LB-agar plates, showing the viability of the captured E. coli cells (1×10^6 CFU/ml) which were incubated for 30 minutes with deprotected (FIGS. 6A1 and 6A2) and Boc-protected (FIGS. 6B1 and 6B2) K(NC12K)7NH2-loaded resin beads, wherein FIGS. 6A1 and 6B1 show the plates of the plated filtrates and FIGS. 6A2 and 6B2 show the plates of filtered and plated beads.

GFP-expressing E. coli = experiment: Viability of polymer-captured bacteria, propidium iodide staining
Protocol: To establish the viability of polymer-captured bacteria, samples of polymer-captured GFP-expressing bacteria were incubated for 15 minutes at room temperature in a solution of 1 ml propidium iodide (Invitrogen, USA) in PBS (final concentration 0.06 mM), and thereafter centrifuged/washed in PBS and examined under a confocal fluorescent microscope using emission suitable for GFP and propidium iodide (excitation at 490 nm emission at 620 nm).

[4] = Hydrophobicity estimation by RP-HPLC (percent acetonitrile at elution); type: physicochemical; settings: RP-HPLC C18, linear acetonitrile gradient 1% per minute
Excerpt: In order to estimate the hydrophobicity of each polymer, the polymer was eluted with a linear gradient of acetonitrile (1% per minute) on an HPLC reversed-phase C18 column, and the percent of acetonitrile at which the polymer was eluted was used for hydrophobicity estimation (see, “ACN (%)” in Table 3 below).
“ACN (%)” represents the percent of acetonitrile in the RP-HPLC gradient mobile phase at which the polymer was eluted and which corresponds to the estimated hydrophobicity of the polymer (column 4 in Table 3);

E. coli [5] = experiment: Bacterial binding assay by real-time SPR on polymer-coated chip; settings: 10^6 CFU/ml E. coli
Protocol: Purified resin-free polymers were immobilized onto the CM5 sensor chip (BIAcore, Uppsala, Sweden) via the terminal carboxyl group using 2-(2-pyridinyldithio)ethaneamine (PDEA). Carboxyl activation was achieved as follows. Morpholino-ethanesulfonic acid (MES buffer, 0.1 ml of 0.1 M) at pH 5.0 was used to solubilize 0.1 mg of the polymer. The solution was mixed with PDEA to final concentration of 22 mM and ethyl-3-(3-dimethylaminopropyl)-carbodiimide (EDC) to final concentration of 13 mM, incubated for 1 hour on ice and then placed in a dialysis tube (floating in buffer) to remove the excess reagents. In parallel, a 1:1 solution (20 μl) of EDC (0.4 M 1-ethyl-3-(3-dimethylaminopropyl)-carbodiimide in water):NHS (0.1 M N-hydroxysuccinimide in water) was injected at a flow rate of 10 μl/minute, to activate the chip surface. […]
Bacterial binding to the polymer was determined by surface plasmon resonance (SPR) using the optical biosensor system BIAcore 2000 (BIAcore, Uppsala, Sweden). […]
For real-time monitoring of bacterial capture the present inventors have developed a model system based on the SPR technology that normally enables binding measurements between immobilized receptor molecules and soluble ligands. […] In the example presented herein, the polymer was immobilized onto the sensor chip and bacteria were injected over the polymer-bound surface and their binding monitored in real-time. […]

E. coli [6] = experiment: Bacteria capture assay with polymer-loaded resin beads (incl. kinetic studies); type: binding, Escherichia coli ATCC 35218; settings: for Bound E. coli (CFU/mg resin): polymer-loaded resin beads, 30 minutes incubation
Protocol: Various concentrations of bacteria in 500 μl luria bertani broth (LB) were shaken at room temperature in the presence of deprotected polymer-loaded beads (1.8 mg of polymer per sample) or protected polymer-loaded and unloaded beads as a control experiment in a centrifuge tube equipped with a 10 μm cutoff membrane (Whatman polypropylene mesh VectaSpin Micro). After 30 minutes incubation the samples were centrifuged at 21,000×g for 5 minutes to separate beads from unbound bacteria and further analyzed as follows.
as §2
“Bound E. coli (CFU/mg resin)” represents the capturing capacity of bacterial binding per one milligram of polymer-loaded resin beads as assessed after 30 minutes incubation using the capture assay as presented herein (column 9 in Table 3).

Row | Compound | MIC (μM) Sa (S. aureus) [µM] | MIC (μM) Pa (P. aeruginosa) [µM] | MIC (μM) Bc (B. cereus) [µM] | MIC (μM) Ec (E. coli [2]) [µM] | ACN (%) at which the polymer was eluted (estimated hydrophobicity) [4] [%] | MIC (μM) Sa (S. aureus; resin-free polymer) [µM] | MIC (μM) Pa (P. aeruginosa; resin-free polymer) [µM] | MIC (μM) Bc (B. cereus; resin-free polymer) [µM] | MIC (μM) Ec (E. coli [2]; resin-free polymer) [µM] | Bound E. coli (CFU/mg resin) (E. coli [6]) | other results
1 | NCCCC[C@H](NC(=O)CCCCCCCCCCCNC(=O)[C@H](CCCCN)NC(=O)CCCCCCCCCCCNC(=O)[C@H](CCCCN)NC(=O)CCCCCCCCCCCNC(=O)[C@H](CCCCN)NC(=O)CCCCCCCCCCCNC(=O)[C@H](CCCCN)NC(=O)CCCCCCCCCCCNC(=O)[C@H](CCCCN)NC(=O)CCCCCCCCCCCNC(=O)[C@H](CCCCN)NC(=O)CCCCCCCCCCCNC(=O)[C@@H](N)CCCCN)C(N)=O [K(NC12K)7NH2] | >50 | >50 | >50 | >50 |  |  |  |  |  |  | stability of the polymer after repeated use [1]: remained unchanged; MIC (bacteria): more than 50 μM; viable bacteria on the filtered and plated beads (E. coli [3]): remained alive; fraction of dead bacteria (GFP-expressing E. coli; polymer-captured bacteria, did not exceed control suspension): up to 12%; viability of polymer-captured bacteria (GFP-expressing E. coli; propidium iodide exclusion): most polymer-captured bacteria were alive
2 | H-KKKKKKKKKKKKKKK-NH2 [Polymer K15NH2, reference compound] |  |  |  |  | 22 | >50 | >50 | >50 | >50 | 1 ± 0.6 × 10^3 CFU/mg resin | stability of the polymer after repeated use ([1]; 10 cycles of bacterial binding and release with 70% ethanol): deteriorated over time; fold less efficient than the K(NC12K)7NH2-coated chip (E. coli [5]): more than 100 fold
3 | CCCCCCCCCCCC(=O)NC(CCCCN)C(=O)NCCCCCCCC(=O)NC(CCCCN)C(=O)NCCCCCCCC(=O)NC(CCCCN)C(=O)NCCCCCCCC(=O)NC(CCCCN)C(=O)NCCCCCCCC(=O)NC(CCCCN)C(=O)NCCCCCCCC(=O)NC(CCCCN)C(=O)NCCCCCCCC(=O)NC(CCCCN)C(=O)NCCCCCCCC(=O)NC(CCCCN)C(N)=O (stereo not shown) [C12K(NC8K)7NH2] |  |  |  |  | 47.5 | 50 (≈ 111 µg/mL) | 6.2 (≈ 13.7 µg/mL) | 12.5 (≈ 27.7 µg/mL) | 3.1 (≈ 6.86 µg/mL) | 1 ± 0.5 × 10^3 CFU/mg resin | amount of captured bacteria (E. coli [6]; polymer-loaded resin beads exposed to E. coli): approximately 10^3 CFUs
4 | H-KKKKKKKK-NH2 [Polymer K8NH2, reference compound] |  |  |  |  | 20 | >50 | >50 | >50 | >50 | 9 ± 1 × 10^2 CFU/mg resin | 
5 | NCCCC[C@H](NC(=O)CCCCCCCNC(=O)[C@H](CCCCN)NC(=O)CCCCCCCNC(=O)[C@H](CCCCN)NC(=O)CCCCCCCNC(=O)[C@H](CCCCN)NC(=O)CCCCCCCNC(=O)[C@H](CCCCN)NC(=O)CCCCCCCNC(=O)[C@H](CCCCN)NC(=O)CCCCCCCNC(=O)[C@H](CCCCN)NC(=O)CCCCCCCNC(=O)[C@@H](N)CCCCN)C(N)=O [K(NC8K)7NH2] | >50 | >50 | >50 | >50 | 34 |  |  |  |  | 2 ± 0.6 × 10^2 CFU/mg resin | 
6 | dermaseptin [reference compound] |  |  |  |  |  |  |  |  |  |  | fraction of dead bacteria upon exposure (GFP-expressing E. coli; polymer-bound bacteria exposed 15 minutes at 12.5 μM): significantly increased
